Assay results published in patent US10975303B2, “Additive for soil conditioning and an agricultural composition containing said additive for plant growth” (priority 2019, dated 2021).

Assays:
Format in all cases: in vivo
Pigeon pea crop = assay: Yield and yield attributes of pigeon pea (Test-5)
Method: The study was carried out with and without the additive of the present disclosure in different plots at a village in […] District (Gujarat). The Pigeon pea crop was planted in 90 cm between two rows and 20 cm of two plants under fields. The result pertaining to plant height, number of branches per plant, number of pods per plant, grain and haulm yield of pigeon pea crop recorded at harvest as influenced by additive of the present disclosure is summarized in Table-7a. Further, the effect of the plant growth regulator and agricultural composition and the comparative results obtained are summarized in Table-7b.

pigeon pea (Toor) = assay: Comparative report of parameters for pigeon pea (Toor), Table 7 (protein, energy, ash, minerals); conditions: pigeon pea (Toor) trial
onion = assay: Growth, yield and yield attributes of onion (Test-3)
Method: The method of testing effect of additive 10 on different properties of soil was similar to the method as disclosed in Test-1 of Experiment-2, except time period which is 2 months instead of 9 months. The effect of additive was tested on soil using additive 10.
The effect of the additive 10, agricultural composition and agricultural composition along with fertilizer prepared in accordance with the present disclosure on the growth of onion was studied. Additive 10 prepared in Experiment 1 was used for the study. The study was conducted in the presence and in absence of the additive of the present disclosure to determine the effect of the additive on onion. Further, the effect of agricultural composition and agricultural composition along with fertilizer was studied. The study was carried out at a village in Bhavnagar District (Gujarat). The study was carried out in Two Plots: one plot, the additive of the present disclosure application and the other plot, urea application under Spacing of two rows and plants (15 cm×10 cm).
The effect of additive 10, agricultural composition and agricultural composition along with fertilizer on growth, yield and yield attributes of onion was carried and the comparative results obtained are summarized in Table-5a.

NC(N)=O [urea]
Grain yield (Pigeon pea crop): 1060 kg/ha
Haulm yield (Pigeon pea crop): 1285 kg/ha
Number of branches per plant (Pigeon pea crop; at harvest): 10.0
Number of pods per plant (Pigeon pea crop; at harvest): 172.0
Plant height (Pigeon pea crop; at harvest): 133.0 cm
Energy (pigeon pea (Toor)): 355.01 Kcal/100 gm
Total Ash (pigeon pea (Toor); LOQ 0.1): 3.94 gm/100 gm
Total Protein (pigeon pea (Toor); LOQ 0.5): 16.47 gm/100 gm
Calcium (as Ca) (pigeon pea (Toor); LOQ 2.5): 508.85 mg/kg
Iron (as Fe) (pigeon pea (Toor); LOQ 2.5): 11.48 mg/kg
Manganese (as Mn) (pigeon pea (Toor); LOQ 2.5): 4.71 mg/kg
Zinc (as Zn) (pigeon pea (Toor); LOQ 2.5): 10.99 mg/kg
Ave. bulb weight (onion): 51.50 g
Bulb yield (onion): 34.30 t/ha
Leaf area (onion): 930 cm²
Plant height (onion): 56.00 cm
